PubChem BioAssay (NCI)
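Growth conditions: 96-well plates. Treatment: test compound, 48 hours, 5 concentrations. Analysis: linear interpolation between bracketing concentrations; unreached endpoints set to highest concentration. Abbreviation: GI50, concentration required for 50% inhibition of growth. The concentration for full growth arrest is given as TGI.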

Tests used:
Assay in all cases: NCI anticancer screen, dose series, 48 h
[1] = tested on: KM12 colon
[2] = tested on: UACC-257 melanoma
[3] = tested on: OVCAR-4 ovarian
[4] = tested on: HCT-116 colon
[5] = tested on: IGROV1 ovarian
[6] = tested on: MDA-MB-231 breast
[7] = tested on: A549 NSCLC
[8] = tested on: HL-60(TB) leukemia
[9] = tested on: SF-295 CNS
[10] = tested on: BT-549 breast
[11] = tested on: HS 578T breast
[12] = tested on: UACC-62 melanoma
[13] = tested on: OVCAR-5 ovarian
[14] = tested on: CCRF-CEM leukemia
[15] = tested on: COLO 205 colon
[16] = tested on: OVCAR-8 ovarian
[17] = tested on: HCT-15 colon
[18] = tested on: PC-3 prostate
[19] = tested on: NCI/ADR-RES ovarian
[20] = tested on: MCF7 breast
[21] = tested on: MALME-3M melanoma
[22] = tested on: K-562 leukemia
[23] = tested on: SNB-75 CNS
[24] = tested on: LOX IMVI melanoma
[25] = tested on: SK-MEL-5 melanoma
[26] = tested on: RXF 393 renal
[27] = tested on: EKVX NSCLC
[28] = tested on: SK-MEL-28 melanoma
[29] = tested on: SF-539 CNS
[30] = tested on: SK-OV-3 ovarian
[31] = tested on: HOP-62 NSCLC
[32] = tested on: UO-31 renal
[33] = tested on: SNB-19 CNS
[34] = tested on: SR leukemia
[35] = tested on: A498 renal
[36] = tested on: OVCAR-3 ovarian
[37] = tested on: NCI-H460 lung
[38] = tested on: HCC-2998 colon
[39] = tested on: ACHN renal
[40] = tested on: NCI-H226 lung
[41] = tested on: SN12C renal
[42] = tested on: SF-268 CNS
[43] = tested on: MOLT-4 leukemia
[44] = tested on: HT29 colon
[45] = tested on: T-47D breast
[46] = tested on: SW-620 colon
[47] = tested on: M14 melanoma
[48] = tested on: TK-10 renal
[49] = tested on: HOP-92 NSCLC
[50] = tested on: RPMI-8226 leukemia
[51] = tested on: 786-0 renal
[52] = tested on: MDA-MB-435
[53] = tested on: SK-MEL-2 melanoma
[54] = tested on: DU-145 prostate
[55] = tested on: U251 CNS
[56] = tested on: CAKI-1 renal
[57] = tested on: NCI-H23 lung
[58] = tested on: NCI-H522 lung

Question: With `COc1ccc(Cc2nnc(Nc3ccc(Br)cc3)[nH]c2=O)cc1OC` as the molecule, how does the TGI [1] read?
Answer: The TGI was over 100 µM.

Question: And the TGI [2]?
Answer: The TGI was over 100 µM.

Question: What about the TGI [3] of the same molecule?
Answer: The TGI was over 100 µM.

Question: What about the TGI [4] of the same molecule?
Answer: The TGI was over 100 µM.

Question: What about the TGI [5] of the same molecule?
Answer: Its TGI is over 100 µM.

Question: And the TGI [6]?
Answer: Its TGI is over 100 µM.

Question: And the TGI [7]?
Answer: The TGI was over 100 µM.

Question: And the TGI [8]?
Answer: The TGI was over 100 µM.

Question: What about the TGI [9] of the same molecule?
Answer: The TGI was over 100 µM.

Question: And the TGI [10]?
Answer: Its TGI is over 31.6 µM.

Question: And the TGI [11]?
Answer: The TGI was over 100 µM.

Question: What about the TGI [12] of the same molecule?
Answer: The TGI was over 100 µM.

Question: And the TGI [13]?
Answer: The TGI was over 100 µM.

Question: What about the TGI [14] of the same molecule?
Answer: The TGI was over 100 µM.

Question: What about the TGI [15] of the same molecule?
Answer: The TGI was over 100 µM.

Question: And the TGI [16]?
Answer: The TGI was over 100 µM.

Question: And the TGI [17]?
Answer: The TGI was over 100 µM.

Question: And the TGI [18]?
Answer: The TGI was over 100 µM.

Question: And the TGI [19]?
Answer: Its TGI is over 100 µM.

Question: What about the TGI [20] of the same molecule?
Answer: Its TGI is over 100 µM.

Question: What about the TGI [21] of the same molecule?
Answer: The TGI was over 100 µM.

Question: And the TGI [22]?
Answer: Its TGI is over 100 µM.

Question: And the TGI [23]?
Answer: Its TGI is over 100 µM.

Question: And the TGI [24]?
Answer: Its TGI is over 100 µM.

Question: What about the TGI [25] of the same molecule?
Answer: Its TGI is over 100 µM.

Question: What about the TGI [26] of the same molecule?
Answer: Its TGI is over 100 µM.

Question: And the TGI [27]?
Answer: The TGI was over 100 µM.

Question: What about the TGI [28] of the same molecule?
Answer: The TGI was over 100 µM.

Question: And the TGI [29]?
Answer: Its TGI is over 100 µM.

Question: What about the TGI [30] of the same molecule?
Answer: Its TGI is over 100 µM.

Question: And the TGI [31]?
Answer: Its TGI is over 95.8 µM.

Question: And the TGI [32]?
Answer: The TGI was over 100 µM.

Question: And the TGI [33]?
Answer: Its TGI is over 100 µM.

Question: What about the TGI [34] of the same molecule?
Answer: The TGI was over 94.3 µM.

Question: What about the TGI [35] of the same molecule?
Answer: The TGI was over 100 µM.

Question: What about the TGI [36] of the same molecule?
Answer: The TGI was over 100 µM.

Question: What about the TGI [37] of the same molecule?
Answer: The TGI was over 100 µM.

Question: And the TGI [38]?
Answer: Its TGI is over 100 µM.

Question: What about the TGI [39] of the same molecule?
Answer: The TGI was over 100 µM.

Question: What about the TGI [40] of the same molecule?
Answer: Its TGI is over 100 µM.

Question: And the TGI [41]?
Answer: Its TGI is over 100 µM.

Question: And the TGI [42]?
Answer: Its TGI is over 100 µM.

Question: And the TGI [43]?
Answer: Its TGI is over 100 µM.

Question: And the TGI [44]?
Answer: Its TGI is over 100 µM.

Question: What about the TGI [45] of the same molecule?
Answer: Its TGI is over 100 µM.

Question: What about the TGI [46] of the same molecule?
Answer: The TGI was over 100 µM.

Question: What about the TGI [47] of the same molecule?
Answer: The TGI was over 100 µM.

Question: What about the TGI [48] of the same molecule?
Answer: The TGI was over 100 µM.

Question: What about the TGI [49] of the same molecule?
Answer: The TGI was over 100 µM.

Question: And the TGI [50]?
Answer: Its TGI is over 100 µM.

Question: What about the TGI [51] of the same molecule?
Answer: The TGI was over 100 µM.

Question: And the TGI [52]?
Answer: The TGI was 20.7 µM.

Question: And the TGI [53]?
Answer: The TGI was over 100 µM.

Question: What about the TGI [54] of the same molecule?
Answer: Its TGI is over 100 µM.

Question: What about the TGI [55] of the same molecule?
Answer: The TGI was over 100 µM.

Question: And the TGI [56]?
Answer: The TGI was over 100 µM.

Question: And the TGI [57]?
Answer: Its TGI is over 100 µM.

Question: And the TGI [58]?
Answer: The TGI was over 100 µM.

Question: Which results are given for `CC(C)=CCC[C@](C)(O)[C@H]1CC[C@]2(C)[C@@H]1CC[C@@H]1[C@@]3(C)CC/C(=N/O)C(C)(C)[C@@H]3CC[C@]12C`?
Answer: GI50 [1]: 12.5 µM; TGI [1]: > 100 µM; GI50 [2]: 29.5 µM; TGI [2]: > 100 µM; GI50 [3]: 13.9 µM; TGI [3]: > 100 µM; GI50 [4]: 4.13 µM; TGI [4]: 27.2 µM; GI50 [5]: 20 µM; TGI [5]: 76.6 µM; GI50 [6]: 9.95 µM; TGI [6]: 37.4 µM; GI50 [7]: 5.86 µM; TGI [7]: 62.9 µM; GI50 [8]: 8.69 µM; TGI [8]: > 100 µM; GI50 [9]: 12.2 µM; TGI [9]: 42.3 µM; GI50 [10]: 27.4 µM; TGI [10]: > 100 µM; GI50 [11]: 20.2 µM; TGI [11]: > 100 µM; GI50 [12]: 17.8 µM; TGI [12]: > 100 µM; GI50 [13]: 22.2 µM; TGI [13]: > 100 µM; GI50 [14]: 14.2 µM; TGI [14]: > 100 µM; GI50 [15]: 11.4 µM; TGI [15]: > 100 µM; GI50 [16]: 12 µM; TGI [16]: 86.2 µM; GI50 [17]: 10.6 µM; TGI [17]: > 100 µM; GI50 [18]: 7.87 µM; TGI [18]: 35.9 µM; GI50 [19]: 18.9 µM; TGI [19]: > 100 µM; GI50 [20]: 4.2 µM; TGI [20]: > 100 µM; GI50 [21]: 8.25 µM; TGI [21]: 32.6 µM; GI50 [22]: 6.06 µM; TGI [22]: > 100 µM; GI50 [23]: 25.4 µM; TGI [23]: > 100 µM; GI50 [24]: 15.7 µM; TGI [24]: 83 µM; GI50 [25]: 19.4 µM; TGI [25]: > 100 µM; GI50 [26]: 8.23 µM; TGI [26]: 38.4 µM; GI50 [27]: 10.1 µM; TGI [27]: > 100 µM; GI50 [28]: 26.5 µM; TGI [28]: > 100 µM; GI50 [29]: 24.3 µM; TGI [29]: > 100 µM; GI50 [30]: 25.7 µM; TGI [30]: > 100 µM; GI50 [31]: 11.1 µM; TGI [31]: 40.9 µM; GI50 [32]: 16.9 µM; TGI [32]: > 100 µM; GI50 [33]: 12.2 µM; TGI [33]: > 100 µM; GI50 [34]: 7.65 µM; TGI [34]: 49.4 µM; GI50 [35]: 51.2 µM; TGI [35]: > 100 µM; GI50 [36]: 10.6 µM; TGI [36]: 39.2 µM; GI50 [37]: 5.54 µM; TGI [37]: > 100 µM; GI50 [38]: 12.9 µM; TGI [38]: 50.8 µM; GI50 [39]: 11.6 µM; TGI [39]: 35.7 µM; GI50 [40]: 9.75 µM; TGI [40]: 47.5 µM; GI50 [41]: 8.48 µM; TGI [41]: 35.2 µM; GI50 [42]: 21.5 µM; TGI [42]: > 100 µM; GI50 [43]: 10.1 µM; TGI [43]: > 100 µM; GI50 [44]: 3.41 µM; TGI [44]: 20.8 µM; GI50 [45]: 2.86 µM; TGI [45]: 88.1 µM; GI50 [46]: 6.98 µM; TGI [46]: > 100 µM; GI50 [47]: 16.3 µM; TGI [47]: > 100 µM; GI50 [48]: 18 µM; TGI [48]: 63.5 µM; GI50 [49]: 7.48 µM; TGI [49]: 26.2 µM; GI50 [50]: 7.68 µM; TGI [50]: > 100 µM; GI50 [51]: 14.3 µM; TGI [51]: 69.3 µM; GI50 [52]: 21.4 µM; TGI [52]: > 100 µM; GI50 [53]: 15.3 µM; TGI [53]: 60.5 µM; GI50 [54]: 13.8 µM; TGI [54]: > 100 µM; GI50 [55]: 12.8 µM; TGI [55]: 49.4 µM; GI50 [56]: 10.4 µM; TGI [56]: 50.7 µM; GI50 [57]: 8.68 µM; TGI [57]: 41.7 µM; GI50 [58]: 13.5 µM; TGI [58]: 99 µM
